“Also recorded” adds a separate entry of the source.
Legend:
[1] = Rebound food intake after a fast; type: in vivo, male C57BL/6J mice
Procedure: In general, male C57BL/6J mice (The Jackson Laboratory, Bar Harbor, ME, USA) weighing 20–25 g were used as experimental subjects. Throughout the duration of the studies, mice were housed under standard laboratory conditions and received ad libitum access to standard laboratory mouse chow and tap water. Lights in the facility were set to go on and off at 12 h intervals with the lights going on at 7:00 a.m. In some experiments, mice also had ad libitum access to a high-fat diet containing 60% caloric content from fat (TD 06414; Harlan Teklad, Indianapolis, IN, USA) in addition to regular chow to measure dietary preferences. All procedures were approved by the Carleton University Animal Care Committee and followed the guidelines of the Canadian Council on Animal Care.
Mice (n = 16) were singly housed and given free access to water and regular chow for a 4-day baseline period. After this, mice were assigned to one of three groups: vehicle (n = 5), CF801 low dose (n = 5; 11 μmol⋅kg^−1 – LD), or CF801 high dose (n = 6; 22 μmol⋅kg^−1 – HD). These mice were injected intraperitoneally once a day for 4 days starting at 10:00 a.m. Following 4 days of treatment, animals were tested for rebound feeding after a fast. To do this, we removed the food from each cage 1 h before lights out (6:00 p.m.), and food was returned to the cage the following day 1 h after the last injection. Food intake was then monitored every hour for 4 h to determine the effects of CF801 on rebound feeding. Animals were then sacrificed by rapid decapitation to collect trunk blood and other tissues. Two samples were lost during sample collection, so the number of samples used to measure acylated ghrelin was reduced to n = 14.

human GOAT (hGOAT) = molecular target: T1, human GOAT (hGOAT) (Homo sapiens, UniProt Q96T53); experiment: Fluorescence-based GOAT activity assay, human GOAT; type: biochemical; conditions: concentrations up to 10 μM; Sf9 membranes, 1.5 μM GSSFLCAcDan, 500 μM octanoyl-CoA, 30 min pre-incubation, 1 h room temperature, pH 7.0, HPLC fluorescence, triplicate; F(3,8) = 1.251, p > 0.05
T1 construct: made in house; host or cells: Sf9 insect cells (membrane fraction)
T1 sequence (Q96T53 1-435): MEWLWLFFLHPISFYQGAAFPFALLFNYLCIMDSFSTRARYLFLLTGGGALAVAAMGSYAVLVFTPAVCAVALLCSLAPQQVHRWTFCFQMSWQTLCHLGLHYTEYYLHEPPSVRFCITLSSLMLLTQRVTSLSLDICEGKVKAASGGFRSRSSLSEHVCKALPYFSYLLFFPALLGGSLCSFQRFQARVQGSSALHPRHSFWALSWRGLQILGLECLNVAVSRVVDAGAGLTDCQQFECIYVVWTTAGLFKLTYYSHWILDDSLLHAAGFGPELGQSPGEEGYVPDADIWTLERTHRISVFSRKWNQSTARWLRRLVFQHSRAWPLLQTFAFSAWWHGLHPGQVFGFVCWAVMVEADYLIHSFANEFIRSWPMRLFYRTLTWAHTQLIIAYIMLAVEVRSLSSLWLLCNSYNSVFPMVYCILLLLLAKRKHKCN
Excerpt: The effects of CF801 on GOAT activity were examined using a previously validated fluorescence-based assay, and in comparison with octanoyl-(Dap3)-ghrelin (1–5)–NH2, a well characterized GOAT inhibitor ([56], [63]). In this assay, membrane fractions from Sf9 insect cells were transfected to express either human (hGOAT) or mouse GOAT (mGOAT). Membranes fractions were thawed on ice and passed through an 18-gage needle 10 times enriched using a previously described method ([63]). […] Assays were analyzed by reverse phase HPLC with fluorescence detection. […] The trials were run in triplicate, with the % activity calculated as the integrated fluorescence intensity of the octanoylated product in the CF801 or octanoyl-(Dap3)-ghrelin (1–5)–NH2 run normalized by the same quantity for the vehicle-only reaction. […]
Figure 3 Percent activity of human GOAT (A) and mouse GOAT (B) (obtained from membrane fractions from Sf9 cells expressing hGOAT and mGOAT, resepectively) when exposed to CF801 and octanoyl-(Dap3)-ghrelin (1–5)–NH2 using a fluorescence-based microsomal assay. GSSFLCAcDan was used as an acylation target with fluorescence measured by reverse phase HPLC with fluorescence detection. […] All values are expressed as mean ± SEM. ***p < 0.001 compared to vehicle control.

Sequence: GSAFLSPEHQRK KRRQRRR-NH2 [CF801]
- food consumed during first hour of refeeding, high dose ([1]; 22 μmol⋅kg^−1 i.p., after fast, F(2,24) = 2.394, p < 0.05, partial eta^2 = 0.22): lower amount of food consumed
- total chow consumed during 4-h food access, high dose vs saline ([1]; 22 μmol⋅kg^−1 i.p., HD vs saline, p < 0.01, Fisher LSD): statistically significant
- total chow consumed during 4-h food access, treatment effect ([1]; after fast, F(2,24) = 4.527, partial eta^2 = 0.411, p > 0.05 as printed): significant overall dose-dependent treatment effect
- food consumed, other time points ([1]; any time point of 4 h refeeding other than first hour, p > 0.05): No significant effects were seen at any other time point examined
- food intake or weight gain during first 3 days of treatment ([1]; i.p. once daily, 11 and 22 μmol⋅kg^−1, data not shown, p > 0.05): No effects
- hGOAT activity with CF801 (human GOAT (hGOAT)): no inhibition was seen; also recorded: no effect

Source: publication PMC4585333, “Novel Regulator of Acylated Ghrelin, CF801, Reduces Weight Gain, Rebound Feeding after a Fast, and Adiposity in Mice” (Frontiers in Endocrinology, 2015)
